Laboratory results published in US10912767B2, “Anthracycline prodrugs and methods of making and using the same” (THE REGENTS OF THE UNIVERSITY OF COLORADO, priority 2015, dated 2021).
Where two headings read alike, the source gives them in different places.

Tests used:
[1] = system: NCI/ADR-RES multi-drug resistant ovarian cancer cell line; experiment: Tumor cell growth inhibition, crystal violet (Example 2); assay type: cell-based; details: for IC50: read-out: IC50
Text: In order to investigate the photolysis of the drugs in a system amenable to cell culture use, a custom UV irradiation apparatus was constructed, consisting of 3 small blacklight fluorescent bulbs (Southern New England Ultraviolet Co., λmax=350 nm) set between two ring stands and suspended at a height of 11.5 cm. The bulbs' housing was reflective aluminum so as to direct as much UV irradiation as possible downward toward the plate. Upon installation in sterile cell culture hood, the power of the system was measured at approximately 6-7 mW using a Scientech laser power meter. Prior to experimentation, the hood and irradiation apparatus was sterilized with 254 nm germicidal UV irradiation overnight. Using this setup, 100 μM of 4,5-dimethoxy-2-nitrobenyl alcohol (DMNA), photodoxazolidine R═H, and glucose-PEG-photodoxazoldine were irradiated in individual wells of a 24-well plate. Initially, 50 μL of a DMSO stock was diluted with 950 μL of PBS and aliquots of 50 μL were removed at various times (0-180 min), mixing by pipetting each time. The timepoints were analyzed by HPLC (method 2) and plotted as fractional conversion versus time. […] Therefore, a second experiment was performed in which the PBS was replaced with 1:1 acetonitrile:water. With this system of 5% DMSO/47.5% acetonitrile/47.5% water, no visible precipitation was produced over the course of the reaction.
The ovarian carcinoma line NCl/ADR-RES (ADR) was grown in high-glucose Dulbecco's Modified Eagle Medium (DMEM) supplemented with 10% fetal bovine serum (FBS), 200 units/mL of penicillin and 200 μg/mL of streptomycin. The breast carcinoma line MDA-MB-231 was cultured in low-glucose DMEM with the same additives. Both lines were maintained in a humidified incubator with 5% CO2/95% air at 37° C. UV irradiations were performed with the apparatus described above.
Growth inhibition experiments were performed by seeding cells into 96-well plates or 24-well plates at densities of 1000-1500 cells per well or 8000 cells per well, respectively, and allowing the cells to adhere overnight. The media was then replaced with a range of aqueous concentrations of the drug in question and allowed to incubate at 37° C. with the cells for a span of time (Inc1) which ranged from 1 min to 48 hours. Irradiation was performed at room temperature with the plate's lid removed and ranged from 1 to 30 min. In some experiments, the drug solution was removed following Inc1 and irradiated in clean media or PBS. Following irradiation, the cells were placed back into the 37° C. incubator for a second period of incubation (Inc2), which varied between 1 min and 24 h, prior to replacement with fresh media. Plates which received no irradiation but identical treatment otherwise were done in parallel. The cells were then grown until the no-drug control wells reached approximately 80% confluence or 5 days, whichever was shorter. […] The cells were fixed with 5% formalin in PBS, stained with crystal violet, washed with tap water, and air-dried. The stain was resolubilized in 50% isopropyl alcohol, 50% H2O containing 2% (w/v) SDS. The staining density was read on a multiwell plate reader at 588-600 nm. Percentage cell density was calculated relative to the irradiated no-drug control wells, plotted as a function of drug concentration, and fit using non-linear least squared analysis with a variable-slope dose response model in GraphPad Prism 5.0 software.
Although the introduction of a long-pass glass filter between the light source and the plate alleviated this effect to a small extent, a maximum irradiation time of 10 min was settled upon. […] Since a media change at that point would remove the cells as well, the re-adherence of the cell population was accomplished by the addition of a large volume (200 μL) of complete media following Inc2, and overnight incubation. Then, a full media change was done to remove the drug. […]

[2] = Solubility observed in irradiation solvent; assay type: physicochemical
Text: In order to investigate the photolysis of the drugs in a system amenable to cell culture use, a custom UV irradiation apparatus was constructed, consisting of 3 small blacklight fluorescent bulbs (Southern New England Ultraviolet Co., λmax=350 nm) set between two ring stands and suspended at a height of 11.5 cm. The bulbs' housing was reflective aluminum so as to direct as much UV irradiation as possible downward toward the plate. Upon installation in sterile cell culture hood, the power of the system was measured at approximately 6-7 mW using a Scientech laser power meter. Prior to experimentation, the hood and irradiation apparatus was sterilized with 254 nm germicidal UV irradiation overnight. Using this setup, 100 μM of 4,5-dimethoxy-2-nitrobenyl alcohol (DMNA), photodoxazolidine R═H, and glucose-PEG-photodoxazoldine were irradiated in individual wells of a 24-well plate. Initially, 50 μL of a DMSO stock was diluted with 950 μL of PBS and aliquots of 50 μL were removed at various times (0-180 min), mixing by pipetting each time. The timepoints were analyzed by HPLC (method 2) and plotted as fractional conversion versus time. […]
The measured quantum yield of 0.002 for photodoxazolidine R═H (above) was lower than expected, which raised the possibility that the presence of the anthraquinone ring complex in the prodrugs was inhibiting photocleavage by quenching the activated state. […]

In the case of COc1cc(COC(=O)N2COC3C(C)OC(OC4CC(O)(C(=O)CO)Cc5c(O)c6c(c(O)c54)C(=O)c4c(OC)cccc4C6=O)CC32)c([N+](=O)[O-])cc1OC (stereo not drawn) [Photodoxazolidine], the “fold drop of IC50 on near UV irradiation” value ([1]; 10 min UV vs alone) is reported as “more than 30 fold”, the IC50 ([1]; +UV 10 min, near UV 350 nm) is reported as 0.11 µM and the “times more toxic than doxorubicin alone” value ([1]; prodrug alone) is reported as 2-3 times. The IC50 ([1]; prodrug alone, no UV) was 3.5 ± 0.8 µM, the IC50 ([1]; prodrug alone) was about 3.5 µM and the “solubility in PBS” value [2] was “poor solubility”.
